Data taken from patent US11654169B2, “Methods for protecting skin and/or promoting wound healing” (SINPHAR PHARMACEUTICAL CO., LTD., priority 2016, dated 2023).

How the values were obtained:
Type in all cases: cell-based
[1] = test system: normal primary human skin fibroblastic cells; experiment: Intracellular content of collagen in fibroblasts (Western blot and ELISA), relative to control; conditions: 48 hours; for relative intracellular content of collagen: control group = 100%; for intracellular contents of collagen as compared to the control group (in words): treated cells vs control group
Method: (§1) The normal primary human skin fibroblastic cells (purchased from ATCC) were cultivated in a Fibroblast Growth Medium. The cells thus provided were used in the following experiments. […]
(§2) The normal primary human skin fibroblastic cells provided by [Preparation Example C] were divided into 37 groups and were respectively cultivated with the following medium for 48 hours: • 1. Group 1: a Fibroblast Growth Medium • 2. Group 2-1 to 2-3: Fibroblast Growth Media containing the pachymic acid (PA) provided by [Preparation Example B] at a concentration of 0.01, 0.1 and 1 μM, respectively; • 3. Group 3-1 to 3-3: Fibroblast Growth Media containing the dehydropachymic acid (DPA) provided by [Preparation Example B] at a concentration of 0.01, 0.1 and 1 μM, respectively; • 4. Group 4-1 to 4-3: Fibroblast Growth Media containing the tumulosic acid (TA) provided by [Preparation Example B] at a concentration of 0.01, 0.1 and 1 μM, respectively; • 5. Group 5-1 to 5-3: Fibroblast Growth Media containing the dehydrotumulosic acid (DTA) provided by [Preparation Example B] at a concentration of 0.01, 0.1 and 1 μM, respectively; • 6. Group 6-1 to 6-3: Fibroblast Growth Media containing the polyporenic acid C (PAC) provided by [Preparation Example B] at a concentration of 0.01, 0.1 and 1 μM, respectively; • 7. Group 7-1 to 7-3: Fibroblast Growth Media containing the 3-epi-dehydrotumulosic acid (EDTA) provided by [Preparation Example B] at a concentration of 0.01, 0.1 and 1 μM, respectively; • 8. Group 8-1 to 8-3: Fibroblast Growth Media containing the dehydrotrametenolic acid (DTTA) provided by [Preparation Example B] at a concentration of 0.01, 0.1 and 1 μM, respectively; • 9. Group 9-1 to 9-3: Fibroblast Growth Media containing the trametenolic acid (TTA) provided by [Preparation Example B] at a concentration of 0.01, 0.1 and 1 μM, respectively; • 10. Group 10-1 to 10-3: Fibroblast Growth Media containing the poricoic acid A (PAA) provided by [Preparation Example B] at a concentration of 0.01, 0.1 and 1 μM, respectively; • 11. Group 11-1 to 11-3: Fibroblast Growth Media containing the dehydroeburicoic acid (DEA) provided by [Preparation Example B] at a concentration of 0.01, 0.1 and 1 μM, respectively; • 12. Group 12-1 to 12-3: Fibroblast Growth Media containing the poricoic acid B (PAB) provided by [Preparation Example B] at a concentration of 0.01, 0.1 and 1 μM, respectively; • 13. Group 13-1 to 13-3: Fibroblast Growth Media containing the eburicoic acid (EA) provided by [Preparation Example B] at a concentration of 0.01, 0.1 and 1 μM, respectively.
Thereafter, the cell medium of each group was collected and concentrated. Then, the intracellular content of collagen was measured and analyzed by Western blot and enzyme-linked immunosorbent assay (ELISA).

[2] = test system: normal primary human skin fibroblastic cells; experiment: Content of collagen in cell medium (extracellular collagen) of fibroblasts (Western blot and ELISA), relative to control; conditions: 48 hours; for relative content of collagen in the medium (extracellular content of collagen): control group = 100%; for extracellular contents of collagen (collagen in cell medium) as compared to the control group (in words): treated cells vs control group
Method: The normal primary human skin fibroblastic cells (purchased from ATCC) were cultivated in a Fibroblast Growth Medium. The cells thus provided were used in the following experiments.
The normal primary human skin fibroblastic cells provided by [Preparation Example C] were divided into 4 groups and were respectively cultivated with the following medium for 48 hours: • 1. Group I: a Fibroblast Growth Medium; • 2.
(§3) Thereafter, the cell medium of each group was collected and concentrated. Then, the intracellular content of collagen, the content of collagen in cell medium (i.e., extracellular content of collagen) and the content of hyaluronic acid in cell medium were measured and analyzed by Western blot and enzyme-linked immunosorbent assay (ELISA).
as §2
The content of collagen in the medium of each group (i.e., extracellular content of collagen) was provided.

[3] = test system: normal primary human skin fibroblastic cells; experiment: Content of hyaluronic acid in cell medium of fibroblasts (Western blot and ELISA), relative to control; conditions: 48 hours; for relative content of hyaluronic acid in the medium (extracellular content of hyaluronic acid): control group = 100%
Method: as §1, §3, §2
The content of hyaluronic acid in the medium of each group (i.e., extracellular content of hyaluronic acid) was provided.

Row | SMILES | relative intracellular content of collagen ([1]; 0.01 μM) [%] | relative intracellular content of collagen ([1]; 0.1 μM) [%] | relative intracellular content of collagen ([1]; 1 μM) [%] | intracellular contents of collagen as compared to the control group (in words) [1] | relative content of collagen in the medium (extracellular content of collagen) ([2]; 0.01 μM) [%] | relative content of collagen in the medium (extracellular content of collagen) ([2]; 0.1 μM) [%] | relative content of collagen in the medium (extracellular content of collagen) ([2]; 1 μM) [%] | extracellular contents of collagen (collagen in cell medium) as compared to the control group (in words) [2] | relative content of hyaluronic acid in the medium (extracellular content of hyaluronic acid) ([3]; 0.01 μM) [%] | relative content of hyaluronic acid in the medium (extracellular content of hyaluronic acid) ([3]; 0.1 μM) [%] | relative content of hyaluronic acid in the medium (extracellular content of hyaluronic acid) ([3]; 1 μM) [%] | contents of hyaluronic acid as compared to the control group (in words) ([3]; treated cells vs control group) | contents of hyaluronic acid, ingredients singled out as stronger (in words) ([3]; treated cells vs control group, compared with the other active ingredients)
1 | C=C(CC[C@@H](C(=O)O)[C@H]1[C@H](O)C[C@@]2(C)C3=CC[C@H]4C(C)(C)[C@@H](O)CC[C@]4(C)C3=CC[C@]12C)C(C)C [Dehydrotumulosic acid (DTA), dehydrotumulosic acid] | 159 | 156 | 127 | significantly enhanced | 122 | 105 | 139 | significantly enhanced | 112 | 134 | 168 | significantly enhanced | enhanced more significantly
2 | C=C(CC[C@@H](C(=O)O)[C@H]1CC[C@@]2(C)C3=C(CC[C@]12C)[C@@]1(C)CC[C@H](O)C(C)(C)[C@@H]1CC3)C(C)C [Eburicoic acid (EA), eburicoic acid] | 102 | 97 | 95 |  | 108 | 106 | 88 | significantly enhanced | 94 | 107 | 120 | significantly enhanced | 
3 | C=C(CC[C@@H](C(=O)O)[C@H]1[C@H](O)C[C@@]2(C)C3=C(CC[C@]12C)[C@@]1(C)CC[C@H](OC(C)=O)C(C)(C)[C@@H]1CC3)C(C)C [Pachymic acid (PA), pachymic acid] | 172 | 235 | 211 |  | 117 | 116 | 106 |  | 98 | 132 | 140 |  | 
4 | C=C(CC[C@@H](C(=O)O)[C@H]1[C@H](O)C[C@@]2(C)C3=CC[C@H]4C(C)(C)C(=O)CC[C@]4(C)C3=CC[C@]12C)C(C)C [Polyporenic acid C (PAC), polyporenic acid C] | 162 | 182 | 200 | significantly enhanced | 134 | 162 | 153 | significantly enhanced | 93 | 113 | 98 | significantly enhanced | 
5 | C=C(CC[C@@H](C(=O)O)[C@H]1[C@H](O)C[C@@]2(C)C3=CC[C@@H](C(=C)C)[C@](C)(CCC(=O)O)C3=CC[C@]12C)C(C)C [Poricoic acid A (PAA), poricoic acid A] | 78 | 104 | 115 | significantly enhanced | 111 | 111 | 91 | significantly enhanced | 108 | 106 | 99 | significantly enhanced | 
6 | C=C(C)[C@@H]1CC=C2C(=CC[C@]3(C)[C@@H]([C@@H](CCC=C(C)C)C(=O)O)[C@H](O)C[C@@]23C)[C@@]1(C)CCC(=O)O [Poricoic acid B (PAB), poricoic acid B] | 105 | 108 | 99 |  | 122 | 136 | 153 | significantly enhanced | 109 | 104 | 84 | significantly enhanced | 
7 | CC(C)=CCC[C@@H](C(=O)O)[C@H]1CC[C@@]2(C)C3=C(CC[C@]12C)[C@@]1(C)CC[C@H](O)C(C)(C)[C@@H]1CC3 [Trametenolic acid (TTA), trametenolic acid] | 95 | 79 | 79 |  | 141 | 149 | 142 | significantly enhanced | 83 | 108 | 125 | significantly enhanced | 
8 | C=C(CC[C@@H](C(=O)O)[C@H]1[C@H](O)C[C@@]2(C)C3=C(CC[C@]12C)[C@@]1(C)CC[C@H](O)C(C)(C)[C@@H]1CC3)C(C)C [Tumulosic acid (TA), tumulosic acid] | 148 | 127 | 147 |  | 140 | 136 | 141 |  | 100 | 123 | 124 |  | 
